Legend:
liver microsomal enzyme = test: Enzyme inductive effect (shortening of hexobarbital sleeping time in Wistar female rats); format: in vivo; details: for Mean duration of sleeping ± S.E.: 60 mg./kg. p.o., 24 hours later hexobarbital 40 mg./kg. i.v., female Wistar rats, control 19.4 ± 1.88
Procedure: As reference substances, phenobarbital and phenacetine were used in the experiments. The pharmacological tests were carried out as follows:
To investigate the enzyme inductive effect, Wistar female rats, each weighing 40 to 50 g. were treated with pure solvent, or with a dosage of 60 mg./kg. of phenobarbital or the compound to be tested, respectively. 24 hours after this treatment 40 mg./kg. of hexobarbital were administered intravenously into the animals. The reduction of the elimination period and the liver enzyme induction was expressed as the shortening of the duration of sleeping.

[1] = LD50 p.o. (acute toxicity); details: in vivo, po, species not given
central nervous system [2] = test: Central nervous system effects (anticonvulsive, rotarod muscle relaxation, sedative tests); format: in vivo; details: in the dosage utilized
[3] = Antipyretic effect (rectal temperature after yeast suspension and pyrago in male rats); format: in vivo; details: 40 mg./kg. orally, yeast and pyrago fever, recorded for 5 hours
Procedure: To test the antipyretic effect, a 15% yeast suspension was administered to male rats each weighing 180 ±10 g. No food was given to the animals, they could consume, however, arbitrary amount of water. 16 hours after the administration of yeast the rectal body temperature of the animals was taken, and the animals were treated with pyrago in an intravenous dosage of 50 M bact./animal. The compound to be tested was administered orally into the animals, thereafter the change in rectal temperature both for the treated and the control animals was recorded for 5 hours, using an "Elab" type electrothermometer. Phenacetine, used as reference substance, and the compounds of the invention were administered in dosages of 40 mg./kg. body weight.

central nervous system [4] = details: known effects at the test animals; cited from earlier work

Row | SMILES | LD50 [1] [mg/kg] | Decrease of temperature [3] [°C] | further results
1 | O=C(c1ccccc1)c1ccc(N2CCOCC2)c([N+](=O)[O-])c1 [Example B2, 3-nitro-4-morpholino-benzophenone] | 1200 | – | Mean duration of sleeping ± S.E. (liver microsomal enzyme; * = p>0.05 (below a significance level of 5 %)): 14.6 ± 1.65 min; inductive effect (liver microsomal enzyme; in words, compared with phenobarbital): the same as that of phenobarbital; effect on the central nervous system (central nervous system [2]): no effect on the central nervous system
2 | CC(C)CN(CC(C)C)c1ccc(C(=O)c2ccccc2)cc1[N+](=O)[O-] [Example B9, 3-Nitro-4-(N.N-diisobutylamino)-benzophenone] | > 3000 | -1.0 | –
3 | CC[N+]1(C)CCN(c2ccc(C(=O)c3ccccc3)cc2[N+](=O)[O-])CC1 [Example B11, 3-nitro-4-(N-methyl-piperazino)-benzophenone ethobromide] | > 3000 | -1.1 | –
4 | CCOc1ccc(NC(C)=O)cc1 [Phenacetine, reference compound] | – | -1.1 | –
5 | CCC1(c2ccccc2)C(=O)NC(=O)NC1=O [Phenobarbital, reference compound] | – | – | Mean duration of sleeping ± S.E. (liver microsomal enzyme; * = (below a significance level of 5 %)): 14.2 ± 1.88 min; effects on the central nervous system (central nervous system [4]): significant effects on the central nervous system, which manifests at the test animals in ataxia, sedatio and anticonvulsive effect

Reference: patent publication US4064121A, “Substituted nitrobenzophenone derivatives and a process for the preparation thereof” (Richter Gedeon Vegyeszeti Gyar Rt., priority 1973, dated 1977)
